Measurements reported in publication PMC9944328 (Nature Communications, 2023).
Read-outs that look alike come from different tables or passages of the source.

Assays:
SSTR2 [1] = test: β-arrestin recruitment with co-transfection of GRK2; type: cell-based, human; details: N276(6.55)A and F294(7.35)A with GRK2 co-transfection
Experimental: In addition, we measured the function of the residues located in the core region and the common ligand binding pocket.
Human full-length β-arrestin 1 was cloned into pcDNA3.1+ vector with the large fragment (LgBiT) of the NanoBiT system and a 15-amino acid flexible linker ([sequence]) at the N-terminus. Human full-length SSTR wild-type and mutant vectors were C-terminally fused with a 15-amino acid flexible linker and the small fragment (SmBiT). HEK293 cells were seeded into six-well microplates at a density of 1.0 × 10^6 cells/well and cultured for 24 h at 37 °C with 5% CO2. After that, cells were co-transfected with pcDNA3.1+ vectors encoding SSTR wild-type or mutants and human β-arrestin 1. After transfecting for 24 h, the transfected cells were suspended and seeded into white 96-well plates, and then cultured at 37 °C overnight. After that the medium in each well was exchanged for 90 μl of 0.01% bovine serum albumin containing 20 μl of 50 μM coelenterazine h (Carbosynth) diluted in the HBSS assay buffer and incubated for 40 min at room temperature. Then, ligands diluted in the assay buffer was added to each well and the luminescence intensity was measured using the Synergy H1 microplate reader and detected at room temperature in a time period. All data presented are means of at least three independent experiments.

SSTR3 mutants [2] = target: SSTR3 mutants (Homo sapiens, UniProt P32745); test: SSTRs Gi-mediated cAMP inhibition, GloSensor, HEK293 (SSTR3 mutants); type: cell-based; set-up: Bottom / Top / Span / Top (best-fit): unit not given here
Experimental: (§1) The levels of the intracellular 3′, 5′-cyclic AMP (cAMP) were measured by the GloSensor cAMP assay (Promega) as described in the previous studies[28],[41] which has been widely used. The human full-length SSTRs and mutants were cloned into the pcDNA3.1+ vector with a HA signal sequence followed by a Flag tag at the N-terminus. […] Cells were then co-transfected with SSTR wild-type or mutants and GloSensor plasmids. After 24 h of transfection, the cells were dissociated with TrypLE™ Express Enzyme (1X) (Thermo Fisher Scientific) and collected by centrifugation at 500 × g for 5 min. Then the collected cells were suspended in Hank’s balanced salt solution [HBSS (Thermo Fisher Scientific)] supplemented with […] potassium salt solution (YEASEN), and then the suspension cells were seeded into 96-well plates with 90 μl/well. After incubating at room temperature for 40 min, 5 μM forskolin and ligands diluted in HBSS were added to each well and the plates were incubated at room temperature for 15 min. […] signals were measured using the Synergy H1 microplate reader (BioTek) and the data presented are means of at least three independent experiments.

SSTR3 mutants [3] = target: T1, SSTR3 mutants (Homo sapiens, UniProt P32745, H192T); test: as above; type: cell-based; set-up: Bottom / Top / Span / Top (best-fit): unit not given here
T1 construct: The human full-length SSTRs and mutants were cloned into the pcDNA3.1+ vector; expressed in transfected cells; host or cells: HEK293 (ATCC, CRL-1573)
Experimental: as §1

SSTR2 [4] = target: SSTR2 (Homo sapiens, UniProt P30874); test: Bystander BRET endosomal trafficking (β-arrestin 1-Nluc, FYVE-mVenus), HEK293 (SSTR2 wild-type); type: cell-based; set-up: The human full-length SSTRs and mutants were cloned into the pcDNA3.1+ vector; expressed in transfected cells; host or cells: HEK293; details: for Bottom / LogEC50 / Span / Top: best-fit value;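 for all read-outs here: HEK293 cells coexpressing Nluc-tagged β-arrestin 1 and mVenus-fused FYVE endosomal marker, bystander BRET ratio read after ligand addition, coelenterazine h substrate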
Experimental: Wild-type or mutant SSTR2, β-arrestin 1-Nluc and FYVE-mVenus were co-transfected in HEK293 cells at a ratio of 1:0.5:4 on six-well plates. The next day, the transfected cells were plated on white 96-well and incubated overnight, and then cells were incubated with 90 µL HBSS containing 20 mM HEPES and coelenterazine h (5 µM) at room temperature for 40 min. After incubation, ligand was added and the signal was measured using the Synergy H1 microplate reader (BioTek) to determine a BRET ratio.

[5] = WT-1 (F265A, I284A, K291A blocks)
[6] = WT-2 (F265A, I284A, K291A blocks)
[7] = WT-2 of N276A block = WT-3 of F294A block

T1 sequence (P32745 whole entry H192T): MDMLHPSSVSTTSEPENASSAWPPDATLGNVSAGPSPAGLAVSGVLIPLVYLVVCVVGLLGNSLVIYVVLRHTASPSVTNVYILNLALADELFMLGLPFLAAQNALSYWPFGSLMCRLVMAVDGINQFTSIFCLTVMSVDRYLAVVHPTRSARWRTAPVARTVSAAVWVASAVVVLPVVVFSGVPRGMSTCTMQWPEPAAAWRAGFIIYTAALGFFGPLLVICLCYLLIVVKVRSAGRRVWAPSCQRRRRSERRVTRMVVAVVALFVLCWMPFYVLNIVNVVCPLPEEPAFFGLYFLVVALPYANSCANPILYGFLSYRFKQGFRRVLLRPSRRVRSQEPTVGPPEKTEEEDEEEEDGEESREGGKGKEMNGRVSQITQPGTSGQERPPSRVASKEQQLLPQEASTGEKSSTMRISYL
Sequence of SSTR2 (Homo sapiens, UniProt P30874) (P30874 whole entry, the tested form may be a part): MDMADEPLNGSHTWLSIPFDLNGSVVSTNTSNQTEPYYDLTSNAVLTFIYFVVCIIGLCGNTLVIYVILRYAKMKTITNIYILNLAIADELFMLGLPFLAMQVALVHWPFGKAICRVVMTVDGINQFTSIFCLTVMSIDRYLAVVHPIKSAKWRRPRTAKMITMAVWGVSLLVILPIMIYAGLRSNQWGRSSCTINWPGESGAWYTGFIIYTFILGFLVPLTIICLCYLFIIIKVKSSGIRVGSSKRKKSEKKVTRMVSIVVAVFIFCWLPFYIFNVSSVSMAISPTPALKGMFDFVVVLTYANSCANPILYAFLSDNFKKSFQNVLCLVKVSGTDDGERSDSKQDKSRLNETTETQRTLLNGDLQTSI
Sequence of SSTR3 mutants (Homo sapiens, UniProt P32745) (P32745 whole entry N104V): as the sequence (P32745 whole entry H192T) above, with N104V, T192H counted along it

With N#Cc1cccc(-c2ccc3ncc(-c4cc(F)cc(F)c4)c(N4CCC(N)CC4)c3c2)c1O [paltusotine] the “β-arrestin recruitment with GRK2” value (SSTR2 [1]) was “influenced paltusotine induced β-arrestin recruitment”, the Emax (SSTR3 mutants [2]; HEK293) was 90.7 ± 7.93% and the “Fold of WT” value (SSTR3 mutants [2]; Suppl. Tables 4/5, SSTR3 N101(2.64)V) was 1.31. The EC50 (SSTR3 mutants [2]; Suppl. Tables 4/5, SSTR3 N101(2.64)V, n=3) was 83.7 ± 1.31 nM, the Bottom (SSTR3 mutants [2]; best-fit, SSTR3 N101V-1) was 2.574 and the EC50 (SSTR3 mutants [2]; best-fit, SSTR3 N101V-1) was 85.3 nM. It also gave a LogEC50 (SSTR3 mutants [2]; best-fit, SSTR3 N101V-1) of -7.069, a Span (SSTR3 mutants [2]; best-fit, SSTR3 N101V-1) of 181.5 and a Bottom (SSTR3 mutants [2]; best-fit, SSTR3 N101V-2) of 5.233. It also gave a LogEC50 (SSTR3 mutants [2]; best-fit, SSTR3 N101V-2) of -7.01, a Span (SSTR3 mutants [2]; best-fit, SSTR3 N101V-2) of 137.4 and a Bottom (SSTR3 mutants [2]; best-fit, SSTR3 N101V-3) of 5.233. For the same molecule, the LogEC50 (SSTR3 mutants [2]; best-fit, SSTR3 N101V-3) was -7.01, the Span (SSTR3 mutants [2]; best-fit, SSTR3 N101V-3) was 137.4 and the EC50 (SSTR3 mutants [3]) was 58.1 ± 1.43 nM. The Emax (SSTR3 mutants [3]; HEK293) was 108 ± 8.99%, the “Fold of WT” value (SSTR3 mutants [3]; Suppl. Tables 4/5, SSTR3 H192(45.51)T) was 0.91 and the Bottom (SSTR3 mutants [3]; best-fit, SSTR3 H192T-1) was 14.85. It also gave a LogEC50 (SSTR3 mutants [3]; best-fit, SSTR3 H192T-1) of -7.173, a Span (SSTR3 mutants [3]; best-fit, SSTR3 H192T-1) of 475 and a Top (SSTR3 mutants [3]; best-fit, SSTR3 H192T-1) of 489.8. The EC50 (SSTR3 mutants [3]; best-fit, SSTR3 H192T-1, read-out: EC50) was 67.2 nM, the Bottom (SSTR3 mutants [3]; best-fit, SSTR3 H192T-2) was 37.09 and the LogEC50 (SSTR3 mutants [3]; best-fit, SSTR3 H192T-2) was -7.251. It also gave a Span (SSTR3 mutants [3]; best-fit, SSTR3 H192T-2) of 569.9, a Top (SSTR3 mutants [3]; best-fit, SSTR3 H192T-2) of 607 and an EC50 (SSTR3 mutants [3]; best-fit, SSTR3 H192T-2, read-out: EC50) of 56 nM. The “Fold of WT” value (SSTR2 [4]; Bystander BRET EC50, SSTR2-WT) was 1.00, the EC50 (SSTR2 [4]; EC50, Bystander BRET, SSTR2-WT, n=6) was 122 ± 1.31 nM and the EC50 (SSTR2 [4]; EC50, best-fit value, WT-1 (F265A, I284A, K291A blocks)) was 40.4 nM. It also gave an EC50 (SSTR2 [4]; EC50, best-fit value, WT-1 (N276A, F294A blocks)) of 250 nM, an EC50 (SSTR2 [4]; EC50, best-fit value, WT-2 (F265A, I284A, K291A blocks)) of 131 nM and an EC50 (SSTR2 [4]; EC50, best-fit value, WT-2 of N276A block = WT-3 of F294A block) of 219 nM. For the same molecule, the EC50 (SSTR2 [4]; EC50, best-fit value, WT-3 (F265A, I284A, K291A blocks)) was 58.5 nM, the EC50 (SSTR2 [4]; EC50, best-fit value, WT-3 of N276A block = WT-2 of F294A block) was 202 nM and the Emax (SSTR2 [4]; HEK293) was 100%. For the same molecule, the “Bottom (best-fit)” value (SSTR2 [4]; WT-1 (run 1)) was 1.413, the “LogEC50 (best-fit)” value (SSTR2 [4]; WT-1 (run 1)) was -7.394 and the “Span (best-fit)” value (SSTR2 [4]; WT-1 (run 1)) was 100. The “Top (best-fit)” value (SSTR2 [4]; WT-1 (run 1)) was 101.4, the “Bottom (best-fit)” value (SSTR2 [4]; WT-2 (run 2)) was -7.096 and the “LogEC50 (best-fit)” value (SSTR2 [4]; WT-2 (run 2)) was -6.882. The “Span (best-fit)” value (SSTR2 [4]; WT-2 (run 2)) was 113.5, the “Top (best-fit)” value (SSTR2 [4]; WT-2 (run 2)) was 106.4 and the “Bottom (best-fit)” value (SSTR2 [4]; WT-3 (run 3)) was -1.006. The “LogEC50 (best-fit)” value (SSTR2 [4]; WT-3 (run 3)) was -7.233, the “Span (best-fit)” value (SSTR2 [4]; WT-3 (run 3)) was 104.3 and the “Top (best-fit)” value (SSTR2 [4]; WT-3 (run 3)) was 103.3. It also gave a Bottom (SSTR2 [4]; [5]) of 1.413, a LogEC50 (SSTR2 [4]; [5]) of -7.394 and a Span (SSTR2 [4]; [5]) of 100. For the same molecule, the Top (SSTR2 [4]; [5]) was 101.4, the Bottom (SSTR2 [4]; WT-1 (N276A, F294A blocks)) was -1.996 and the LogEC50 (SSTR2 [4]; WT-1 (N276A, F294A blocks)) was -6.603. The Span (SSTR2 [4]; WT-1 (N276A, F294A blocks)) was 108.2, the Top (SSTR2 [4]; WT-1 (N276A, F294A blocks)) was 106.2 and the Bottom (SSTR2 [4]; [6]) was -7.096. For the same molecule, the LogEC50 (SSTR2 [4]; [6]) was -6.882, the Span (SSTR2 [4]; [6]) was 113.5 and the Top (SSTR2 [4]; [6]) was 106.4. For the same molecule, the Bottom (SSTR2 [4]; [7]) was -1.129, the LogEC50 (SSTR2 [4]; [7]) was -6.66 and the Span (SSTR2 [4]; [7]) was 107.2. The Top (SSTR2 [4]; [7]) was 106.1.
